Results published in patent US9822137B2, “Phosphonucleosides useful in the treatment of viral disorders” (UNIVERSITY COLLEGE CORK, priority 2012, dated 2017).
≈ marks a conversion by molar mass, not a printed value. Counter-ions that a name gives are not always drawn. Like-named read-outs stand apart in the source and are kept apart here.

Tests used:
[1] = biological target: HIV-1 reverse transcriptase (Human immunodeficiency virus type 1 group M subtype B, UniProt P04585); assay: cell-free HIV-1 RT assay with artificial homopolymeric template/primer and [3H]dNTP; format: biochemical; conditions: for inhibition of incorporation of [3H]dATP in poly rU/oligo dA / inhibition of incorporation of [3H]dCTP in poly rI/oligo dC: 11a and 11b at 200 μg/mL
Description: To prepare the template/primers for the RT experiments, 0.15 mM poly(U), poly(A), and poly(I) were mixed with an equal volume of 0.0375 mM oligo(dA), oligo(dT), and oligo(dC), respectively. The final concentrations of the templates in the RT reaction mixture were 0.015 mM. The reaction mixture (50 μl) contained 50 mM Tris.HCl (pH 7.8), 5 mM dithiothreitol, 300 mM glutathione, 500 μM EDTA, 150 mM KCl, 5 mM MgCl2, 1.25 μg of bovine serum albumin, an appropriate concentration of labeled (tritiated) substrate dTTP, dCTP, or dATP (2 μCi/assay), a fixed concentration of the template/primer poly(A).oligo(dT) (0.015 mM), poly(I).oligo(dC) (0.015 mM), and poly(U).oligo(dA) (0.015 mM), 0.06% Triton X-100, 10 μl of inhibitor solution (containing various concentrations of the compounds), and 1 μl of the RT preparation. The reaction mixtures were incubated at 37° C. for 30 min, at which time 100 μl of yeast RNA (1 mg/ml) and 1 ml of Na4P2O7 (0.02 M) in trichloroacetic acid (5% v/v) were added. The solutions were kept on ice for 30 min, after which the acid-insoluble material was washed and analyzed for radioactivity.

[2] = chemical stability on storage / in solution; format: physicochemical
HIV-RT = HIV-RT (Human immunodeficiency virus type 1 group M subtype B, UniProt P04585); conditions: cell-free HIV-RT assay, literature, not a direct comparison; cited from earlier work
[3] = substrate [3H]dATP, template/primer poly rU.oligo dA, read-out: IC50, HIV-RT catalysed incorporation of [3H]dATP / polyrU.dA (converted)
[4] = substrate [3H]dCTP, template/primer poly rI.oligo dC, read-out: IC50, HIV-RT catalysed incorporation of [3H]dCTP / polyrI.dC (converted)
[5] = substrate [3H]dTTP, template/primer poly rA.oligo dT, read-out: IC50, HIV-RT catalysed incorporation of [3H]dTTP / polyrA.dT (converted)
[6] = IC50, HIV-RT catalysed incorporation of [3H]dATP / polyrU.dA, substrate [3H]dATP, template/primer poly rU.oligo dA
[7] = IC50, HIV-RT catalysed incorporation of [3H]dCTP / polyrI.dC, substrate [3H]dCTP, template/primer poly rI.oligo dC
[8] = IC50, HIV-RT catalysed incorporation of [3H]dTTP / polyrA.dT, substrate [3H]dTTP, template/primer poly rA.oligo dT

| Compound | IC50 [1, 3] | IC50 [1, 4] | IC50 [1, 5] | melting point | also measured |
| --- | --- | --- | --- | --- | --- |
| Cc1cn([C@H]2CC[C@@H](OC(C(=O)O)P(=O)(O)O)C2)c(=O)[nH]c1=O (single isomer, unassigned; (+)) [(+)-11a] | 101 µM | > 574 µM | 37.3 µM |  |  |
| COC(=O)C(O[C@H]1CC[C@@H](n2ccc(N)nc2=O)C1)P(=O)(OC)OC (relative stereo) [Compound 26c, cis-1-{4-[(Methoxycarbonyl)dimethylphosphonomethoxy]cyclopentan-1-yl}cytosine] |  |  |  |  | stability in deuterated chloroform ([2]; 16 hours at room temperature): Significant decomposition |
| Nc1ncnc2c1ncn2[C@H]1CC[C@@H](COP(=O)(O)OP(=O)(O)OP(=O)(O)O)O1 [ddATP, reference compound] |  |  |  |  | IC50, HIV-RT catalysed incorporation of [3H]dATP / polyrU.dA ([1]; substrate [3H]dATP, template/primer poly rU.oligo dA): 0.55 ± 0.09 µg/mL |
| Cc1cn([C@@H]2CC[C@H](OC(C(=O)O)P(=O)(O)O)C2)c(=O)[nH]c1=O (relative stereo) [Compound 11a, cis-1-{4-[Carboxy(phosphono)methoxy]cyclopentan-1-yl}thymine] | 307 µM | > 574 µM | 0.431 µM |  | inhibition of incorporation of [3H]dATP in poly rU/oligo dA [1]: no marked, if any inhibition; inhibition of incorporation of [3H]dCTP in poly rI/oligo dC [1]: no marked, if any inhibition |
| Nc1ncnc2c1ncn2[C@@H]1CC[C@H](OC(C(=O)O)P(=O)(O)O)C1 (relative stereo) (as salt: ammonium) [Compound 11d, cis-9-{4-[Carboxy(phosphono)methoxy]cyclopentan-1-yl}adenine] |  |  |  | 236 to 240 °C |  |
| COC(=O)C(O[C@H]1CC[C@@H](n2ccc(=O)[nH]c2=O)C1)P(=O)(OC)OC (relative stereo) [Compound 26b, cis-1-{4-[(methoxycarbonyl)dimethylphosphonomethoxy]cyclopentan-1-yl}uracil] |  |  |  |  | stability on storage at room temperature ([2]; room temperature, extended periods, neat, solid or in solution): no noticeable decomposition; purity by 1H NMR of aged sample ([2]; sample approximately 2 years old, stored at room temperature): 95% |
| Nc1ncnc2c1ncn2[C@H]1CC[C@@H](OC(C(=O)O)P(=O)(O)O)C1 (single isomer, unassigned; (+)) [(+)-11d] | 33.6 µM | > 560 µM | 487 µM |  |  |
| COC(=O)C(O[C@@H]1CC[C@H](n2cc(C)c(=O)[nH]c2=O)C1)P(=O)(OC)OC (single isomer, unassigned; (-)) [(−)26a] |  |  |  | 133 to 135 °C |  |
| O=C(O)C(OC1CCC(n2cc(F)c(=O)[nH]c2=O)C1)P(=O)(O)O (stereo not drawn) (as salt: ammonium) [Compound 41, 2-((3-(5-fluoro-2,4-dioxo-3,4-dihydropyrimidin-1(2H)-yl)cyclopentyl)oxy)-2-phosphonoacetic acid] |  |  |  | 243 °C |  |
| Nc1ccn([C@@H]2CC[C@H](OC(C(=O)O)P(=O)(O)O)C2)c(=O)n1 (relative stereo) [Compound 11c, cis-1-{4-[Carboxy(phosphono)methoxy]cyclopentan-1-yl}cytosine] | 108 µM | 4.8 µM | 231 µM | > 250 °C |  |
| Cc1cn([C@H]2C[C@H](N=[N+]=[N-])[C@@H](COP(=O)(O)OP(=O)(O)OP(=O)(O)O)O2)c(=O)[nH]c1=O [AZT-TP, reference compound] |  |  |  |  | IC50, HIV-RT catalysed incorporation of [3H]dTTP / polyrA.dT ([1]; substrate [3H]dTTP, template/primer poly rA.oligo dT): 0.035 ± 0.016 µg/mL |
| Nc1ncnc2c1ncn2[C@@H]1CC[C@H](OC(C(=O)O)P(=O)(O)O)C1 (single isomer, unassigned; (-)) [(−)-11d] | 0.202 µM | > 560 µM | > 560 µM |  |  |
| Nc1ccn([C@H]2CC[C@@H](OC(C(=O)O)P(=O)(O)O)C2)c(=O)n1 (single isomer, unassigned; (+)) [(+)-11c] | 54 µM | 402 µM | 23.4 µM | > 250 °C |  |
| COC(=O)C(O[C@H]1CC[C@@H](n2cc(C)c(=O)[nH]c2=O)C1)P(=O)(OC)OC (relative stereo) [26a] |  |  |  | 130 to 133 °C |  |
| O=C(O)C(O[C@H]1CC[C@@H](n2ccc(=O)[nH]c2=O)C1)P(=O)(O)O (relative stereo) [Compound 11b, cis-1-{4-[Carboxy(phosphono)methoxy]cyclopentan-1-yl}uracil] | 221 µM | > 598 µM | 3.89 µM |  | inhibition of incorporation of [3H]dATP in poly rU/oligo dA [1]: no marked, if any inhibition; inhibition of incorporation of [3H]dCTP in poly rI/oligo dC [1]: no marked, if any inhibition |
| Nc1ncnc2c1ncn2[C@@H]1CC[C@H](OC(C(=O)O)P(=O)(O)O)C1 (relative stereo) [Compound 11d, cis-9-{4-[Carboxy(phosphono)methoxy]cyclopentan-1-yl}adenine] |  |  |  |  | IC50 [1, 6]: 0.274 µM; IC50 [1, 7]: > 560 µM; IC50 [1, 8]: ≥ 560 µM; inhibition of incorporation of [3H]dATP in poly rU/oligo dA [1]: potent inhibitor; degradation of stored sample ([2]; sample checked after 1 year): ~10% |
| Cc1cn([C@@H]2CC[C@H](OC(C(=O)O)P(=O)(O)O)C2)c(=O)[nH]c1=O (relative stereo) (as salt: ammonium) [Compound 11a, cis-1-{4-[Carboxy(phosphono)methoxy]cyclopentan-1-yl}thymine] |  |  |  | 228 to 230 °C |  |
| Nc1ncnc2c1ncn2[C@@H]1CC[C@H](OC(C(=O)O)P(=O)(O)O)C1 (single isomer, unassigned; (-)) (as salt: ammonium) [(−)-11d] |  |  |  | 237 to 241 °C |  |
| Nc1ccn([C@@H]2CC[C@H](OC(C(=O)O)P(=O)(O)O)C2)c(=O)n1 (single isomer, unassigned; (-)) [(−)-11c] | 51 µM | 4.5 µM | 180 µM |  | inhibition of incorporation of [3H]dCTP in poly rI/oligo dC [1]: strong inhibition |
| Cc1cn([C@H]2CC[C@@H](OC(C(=O)O)P(=O)(O)O)C2)c(=O)[nH]c1=O (single isomer, unassigned; (+)) (as salt: ammonium) [(+)-11a] |  |  |  | 225 to 227 °C |  |
| Cc1cn([C@H]2C[C@H](N=[N+]=[N-])[C@@H](CO)O2)c(=O)[nH]c1=O [AZT] |  |  |  |  | IC50 anti-HIV-RT activity reported by McClure (HIV-RT): 0.1 µg/mL (≈ 0.374 µM) |
| COC(=O)C(O[C@H]1C=C[C@@H](n2ccc(N)nc2=O)C1)P(=O)(OC)OC (relative stereo) [Compound 24c, cis-1-{4-[(Methoxycarbonyl)dimethylphosphonomethoxy]cyclopent-2-en-1-yl}cytosine] |  |  |  |  | stability in deuterated chloroform ([2]; 36 hours at room temperature): Significant decomposition |
| COC(=O)C(O[C@H]1CC[C@@H](n2cnc3nc(N)nc(Cl)c32)C1)P(=O)(OC)OC (relative stereo) [Compound N-7-26e, cis-2-Amino-7-{4-[(methoxycarbonyl)dimethylphosphonornethoxy]cyclopentan-1-yl}-6-chloropurine] |  |  |  |  | stability in solution ([2]; within 4 days in solution): significant decomposition |
| Cc1cn([C@@H]2CC[C@H](OC(C(=O)O)P(=O)(O)O)C2)c(=O)[nH]c1=O (single isomer, unassigned; (-)) (as salt: ammonium) [(−)-11a] |  |  |  | 229 to 230 °C |  |
| COC(=O)C(O[C@H]1CC[C@@H](n2cc(C)c(=O)[nH]c2=O)C1)P(=O)(OC)OC (single isomer, unassigned; (+)) [(+)26a] |  |  |  | 129 to 130 °C |  |
| O=C(O)C(O[C@H]1CC[C@@H](n2ccc(=O)[nH]c2=O)C1)P(=O)(O)O (single isomer, unassigned; (-)) [(−)-11b] | 233 µM | > 598 µM | 3.29 µM |  | inhibition of HIV-1-RT-catalysed incorporation of [3H]dTTP in poly rA/oligo dT [1]: potent inhibitory activity |
| Cc1cn([C@@H]2CC[C@H](OC(C(=O)O)P(=O)(O)O)C2)c(=O)[nH]c1=O (single isomer, unassigned; (-)) [(−)-11a] |  |  |  |  | IC50 [1, 6]: 167 µM; IC50 [1, 7]: > 574 µM; IC50 [1, 8]: 0.431 µM; inhibition of HIV-1-RT-catalysed incorporation of [3H]dTTP in poly rA/oligo dT [1]: potent inhibitory activity |
| Nc1ccn([C@H]2CC[C@@H](COP(=O)(O)OP(=O)(O)OP(=O)(O)O)O2)c(=O)n1 [ddCTP, reference compound] |  |  |  |  | IC50, HIV-RT catalysed incorporation of [3H]dCTP / polyrI.dC ([1]; substrate [3H]dCTP, template/primer poly rI.oligo dC): 5.0 ± 0.4 µg/mL |
| O=C(O)C(O[C@@H]1CC[C@H](n2ccc(=O)[nH]c2=O)C1)P(=O)(O)O (single isomer, unassigned; (+)) [(+)-11b] | 168 µM | > 598 µM | 120 µM |  |  |
| Nc1ncnc2c1ncn2[C@H]1CC[C@@H](OC(C(=O)O)P(=O)(O)O)C1 (single isomer, unassigned; (+)) (as salt: ammonium) [(+)-11d] |  |  |  | 234 to 239 °C |  |
